Test results: ChEMBL document CHEMBL1151930, “Physicochemical determinants of human renal clearance” (J Med Chem, 2009)

Assay: clinical
Conditions: human, in vivo

Cc1ccsc1C(=CCCN1CCC[C@@H](C(=O)O)C1)c1sccc1C [TIAGABINE]
CL renal: 0.03 mL/min/kg

NC(=O)c1ncn([C@@H]2O[C@H](CO)[C@@H](O)[C@H]2O)n1 [RIBAVIRIN]
CL renal: 1.7 mL/min/kg

CN(C)C(=O)Oc1ccc[n+](C)c1 [PYRIDOSTIGMINE]
CL renal: 7.2 mL/min/kg

COc1cccc(C2(O)CCCCC2CN(C)C)c1 (stereo unspecified) [TRAMADOL]
CL renal: 0.98 mL/min/kg

c1ccc(C2(c3ccccc3)CC2C2=NCCN2)cc1 (stereo unspecified) [CIFENLINE]
CL renal: 4.2 mL/min/kg

N=C(N)c1ccc(CNC(=O)[C@@H]2CCN2C(=O)[C@H](NCC(=O)O)C2CCCCC2)cc1
CL renal: 1.6 mL/min/kg

C[C@H]1c2cccc(O)c2C(=O)C2=C(O)[C@]3(O)C(=O)C(C(N)=O)=C(O)[C@@H](N(C)C)[C@@H]3[C@@H](O)[C@@H]21.O [DOXYCYCLINE]
CL renal: 0.19 mL/min/kg

COc1cccc2c1C(=O)c1c(O)c3c(c(O)c1C2=O)C[C@@](O)(C(=O)CO)C[C@@H]3O[C@H]1C[C@H](N)[C@H](O)[C@H](C)O1 [DOXORUBICIN]
CL renal: 1.83 mL/min/kg

Cc1ncsc1CCCl [CLOMETHIAZOLE]
CL renal: 0.03 mL/min/kg

CC1=C(C(=O)O)N2C(=O)[C@@H](NC(=O)[C@H](N)c3ccc(O)cc3)[C@H]2SC1 [CEFADROXIL]
CL renal: 2.33 mL/min/kg

O=c1[nH]cnc2c1ncn2[C@H]1CC[C@@H](CO)O1 [DIDANOSINE]
CL renal: 6.8 mL/min/kg

S=P(N1CC1)(N1CC1)N1CC1 [THIOTEPA]
CL renal: 0.03 mL/min/kg

NS(=O)(=O)c1cc(C2(O)NC(=O)c3ccccc32)ccc1Cl (stereo unspecified) [CHLORTHALIDONE]
CL renal: 0.98 mL/min/kg

CCN(C)C(=O)Oc1cccc([C@H](C)N(C)C)c1 [RIVASTIGMINE]
CL renal: 0.12 mL/min/kg

COc1ccc2c3c1O[C@H]1C(=O)CC[C@@]4(O)[C@@H](C2)N(C)CC[C@]314 [OXYCODONE]
CL renal: 1.1 mL/min/kg

COc1cc2nc(N3CCN(C(=O)C4CCCO4)CC3)nc(N)c2cc1OC (stereo unspecified) [TERAZOSIN]
CL renal: 0.13 mL/min/kg

CNC(=C[N+](=O)[O-])NCCSCc1csc(CN(C)C)n1 [NIZATIDINE]
CL renal: 7.35 mL/min/kg

C=C1CC[C@@]2(O)[C@H]3Cc4ccc(O)c5c4[C@@]2(CCN3CC2CC2)[C@H]1O5
CL renal: 0.75 mL/min/kg

NC[C@H]1O[C@H](O[C@H]2[C@H](O)[C@@H](O[C@H]3O[C@H](CO)[C@@H](O)[C@H](N)[C@H]3O)[C@H](N)C[C@@H]2N)[C@H](N)C[C@@H]1O [TOBRAMYCIN]
CL renal: 1.19 mL/min/kg

Cc1ccc(-c2nc3ccc(C)cn3c2CC(=O)N(C)C)cc1 [ZOLPIDEM]
CL renal: 0.04 mL/min/kg

NCCCC[C@H](N[C@@H](CCc1ccccc1)C(=O)O)C(=O)N1CCC[C@H]1C(=O)O [LISINOPRIL ANHYDROUS]
CL renal: 1.2 mL/min/kg

C[C@]12C=CC(=O)C=C1CC[C@@H]1[C@@H]2[C@@H](O)C[C@@]2(C)[C@H]1CC[C@]2(O)C(=O)CO [PREDNISOLONE]
CL renal: 0.6 mL/min/kg

COc1cccc(OC)c1C(=O)N[C@@H]1C(=O)N2[C@@H]1SC(C)(C)[C@@H]2C(=O)O [METHICILLIN]
CL renal: 4.2 mL/min/kg

C[C@@H](O)[C@H]1C(=O)N2C(C(=O)[O-])=C(SC3Cn4cnc[n+]4C3)[C@H](C)[C@H]12 (stereo partly specified) [BIAPENEM]
CL renal: 1.23 mL/min/kg

CN1CCN(C(=O)OC2c3nccnc3C(=O)N2c2ccc(Cl)cn2)CC1 (stereo unspecified) [ZOPICLONE]
CL renal: 0.1 mL/min/kg

CCCCN1CCCCC1C(=O)Nc1c(C)cccc1C (stereo unspecified) [BUPIVACAINE]
CL renal: 0.09 mL/min/kg

CN(C)CCCN1c2ccccc2CCc2cc(O)ccc21 [2-HYDROXYIMIPRAMINE]
CL renal: 0.3 mL/min/kg

C[C@H](N[C@@H](CCc1ccccc1)C(=O)O)C(=O)N1Cc2ccccc2C[C@H]1C(=O)O
CL renal: 0.9 mL/min/kg

CC[C@H]1OC(=O)[C@H](C)[C@@H](O[C@H]2C[C@@](C)(OC)[C@@H](O)[C@H](C)O2)[C@H](C)[C@@H](O[C@@H]2O[C@H](C)C[C@H](N(C)C)[C@H]2O)[C@](C)(O)C[C@@H](C)C(=O)[C@H](C)[C@@H](O)[C@]1(C)O [ERYTHROMYCIN]
CL renal: 0.34 mL/min/kg

COc1ccccc1OCCNCC(O)COc1cccc2[nH]c3ccccc3c12 (stereo unspecified) [CARVEDILOL]
CL renal: 0.1 mL/min/kg

COc1cc(OC)c(C(=O)CCCN2CCCC2)c(OC)c1 [BUFLOMEDIL]
CL renal: 1.3 mL/min/kg
